Source: ChEMBL document CHEMBL1201862, “PubChem BioAssay data set” (2004)
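Following 48 hours of exposure in 96-well plates, responses at five concentrations were used to interpolate endpoints linearly. GI50 is the concentration that inhibits growth by half.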 Calls of active or inactive are those of the source. Cut-off read from the data, not from the text of the source: active = GI50 up to about 1.1 µM and inactive = higher.

How the values were obtained:
Test in all cases: growth of human tumour cells (NCI), 48 h
786-0 = system: 786-0
A549 = system: A549
EKVX = system: EKVX
HOP-92 = system: HOP-92
IGROV-1 = system: IGROV-1
K562 = system: K562
MOLT-4 = system: MOLT-4
Malme-3M = system: Malme-3M
OVCAR-4 = system: OVCAR-4
OVCAR-5 = system: OVCAR-5
RPMI-8226 = system: RPMI-8226
SK-MEL-5 = system: SK-MEL-5
SK-OV-3 = system: SK-OV-3
SNB-19 = system: SNB-19
SW-620 = system: SW-620
U-251 = system: U-251
UO-31 = system: UO-31
SR = system: SR

| Structure (SMILES) | GI50 (786-0) | GI50 (A549) | GI50 (EKVX) | GI50 (HOP-92) | GI50 (IGROV-1) | GI50 (K562) | GI50 (MOLT-4) | GI50 (Malme-3M) | GI50 (OVCAR-4) | GI50 (OVCAR-5) | GI50 (RPMI-8226) | GI50 (SK-MEL-5) | GI50 (SK-OV-3) | GI50 (SNB-19) | GI50 (SW-620) | GI50 (U-251) | GI50 (UO-31) | GI50 (SR) |
| --- | --- | --- | --- | --- | --- | --- | --- | --- | --- | --- | --- | --- | --- | --- | --- | --- | --- | --- |
| CCC(C)c1cccc(C)c1NC(=O)C(=O)Cc1nc2ccccc2s1 (stereo unspecified) | > 100 µM (inactive) | > 100 µM (inactive) | > 100 µM (inactive) | > 100 µM (inactive) | > 100 µM (inactive) | > 100 µM (inactive) | > 100 µM (inactive) | > 100 µM (inactive) | > 100 µM (inactive) | > 100 µM (inactive) | > 100 µM (inactive) | > 100 µM (inactive) | > 100 µM (inactive) | > 100 µM (inactive) | > 100 µM (inactive) | > 100 µM (inactive) | > 100 µM (inactive) | – |
| C/C=C1/C=CC2c3[nH]c4ccccc4c3CCN2C1 (stereo unspecified) | > 400 µM (inactive) | > 400 µM (inactive) | > 400 µM (inactive) | 199 µM (inactive) | > 400 µM (inactive) | > 400 µM (inactive) | > 400 µM (inactive) | > 400 µM (inactive) | – | – | > 400 µM (inactive) | 138 µM (inactive) | > 400 µM (inactive) | 187 µM (inactive) | > 400 µM (inactive) | > 400 µM (inactive) | – | 331 µM (inactive) |
| CCSC1(SCC)CC(Cc2ccc(OC)cc2)N(/C=N/C(C)(C)C)C1 (stereo unspecified) | 32.1 µM (inactive) | 36.9 µM (inactive) | 27 µM (inactive) | 0.321 µM (active) | 37.8 µM (inactive) | 17.8 µM (inactive) | 14.7 µM (inactive) | 20.1 µM (inactive) | 29.7 µM (inactive) | 11.5 µM (inactive) | – | 16.4 µM (inactive) | 22.8 µM (inactive) | 38.7 µM (inactive) | 15.1 µM (inactive) | 19.1 µM (inactive) | 17.3 µM (inactive) | 10.6 µM (inactive) |
| CC(C)=CCC/C(C)=C/CC/C(C)=C/CC/C=C(\C)CC/C=C(\C)CCC1SC1(C)C (stereo unspecified) | > 100 µM (inactive) | > 100 µM (inactive) | > 100 µM (inactive) | 64 µM (inactive) | > 100 µM (inactive) | > 100 µM (inactive) | > 100 µM (inactive) | > 100 µM (inactive) | > 100 µM (inactive) | > 100 µM (inactive) | > 100 µM (inactive) | > 100 µM (inactive) | > 100 µM (inactive) | > 100 µM (inactive) | 52.5 µM (inactive) | > 100 µM (inactive) | > 100 µM (inactive) | – |
| N#CC12CC3(CCC1CCC1(C2)OCCO1)OCCO3 (stereo unspecified) | > 100 µM (inactive) | > 100 µM (inactive) | > 100 µM (inactive) | > 100 µM (inactive) | > 100 µM (inactive) | > 100 µM (inactive) | > 100 µM (inactive) | > 100 µM (inactive) | > 100 µM (inactive) | > 100 µM (inactive) | > 100 µM (inactive) | > 100 µM (inactive) | > 100 µM (inactive) | > 100 µM (inactive) | > 100 µM (inactive) | > 100 µM (inactive) | > 100 µM (inactive) | > 100 µM (inactive) |
| COC(=O)[C@@H]1C(=O)O[C@@H](c2ccc3c(c2)OCO3)[C@@H]1C(=O)OC.COC(=O)[C@H]1C(=O)O[C@@H](c2ccc3c(c2)OCO3)[C@@H]1C(=O)OC | > 100 µM (inactive) | > 100 µM (inactive) | > 100 µM (inactive) | 43.8 µM (inactive) | > 100 µM (inactive) | > 100 µM (inactive) | > 100 µM (inactive) | > 100 µM (inactive) | > 100 µM (inactive) | > 100 µM (inactive) | > 100 µM (inactive) | > 100 µM (inactive) | > 100 µM (inactive) | > 100 µM (inactive) | > 100 µM (inactive) | > 100 µM (inactive) | > 100 µM (inactive) | > 100 µM (inactive) |
| Nc1ccccc1N | > 100 µM (inactive) | > 100 µM (inactive) | – | > 100 µM (inactive) | > 100 µM (inactive) | > 100 µM (inactive) | 36.7 µM (inactive) | > 100 µM (inactive) | > 100 µM (inactive) | > 100 µM (inactive) | 32 µM (inactive) | > 100 µM (inactive) | > 100 µM (inactive) | > 100 µM (inactive) | > 100 µM (inactive) | > 100 µM (inactive) | > 100 µM (inactive) | 32.9 µM (inactive) |
| COc1cc(CC(=O)c2ccc3c(c2)OCO3)cc(OC)c1OC | > 100 µM (inactive) | > 100 µM (inactive) | > 100 µM (inactive) | > 100 µM (inactive) | > 100 µM (inactive) | 93.5 µM (inactive) | > 100 µM (inactive) | > 100 µM (inactive) | > 100 µM (inactive) | > 100 µM (inactive) | 44 µM (inactive) | > 100 µM (inactive) | > 100 µM (inactive) | > 100 µM (inactive) | 19.3 µM (inactive) | 46.6 µM (inactive) | > 100 µM (inactive) | – |
